From patent US20050009005A1, “Methods of using quantitative lipid metabolome data” (Lipomics Technologies, Inc., priority 2001, published 2005)

Test system: de novo fatty acid synthesis
Assay: Lipid metabolite profile of plasma, heart, liver and inguinal adipose of CL316,243-treated mice (trial 2; Tables 7 and 8)
Assay type: in vivo
Settings: for Total n9 / 14:0 / 16:0 / 16:1n7 / 18:0 / 18:1n7 / 18:1n9 / Saturates / Total n7 / Total nMole of FA: mean
Source text: It is understood that the described methods can be used to analyze lipid metabolites from other subjects, including particularly animals other than mice.
Mouse tissue and plasma samples were a generous donation to Lipomics Technologies, Inc., from Dr. Edward Leiter of the Jackson Laboratory (Bar Harbor, Me.). Samples included the plasma, heart, liver and inguinal adipose of mice treated with pharmaceuticals or their corresponding controls.
In trial 2, male, inbred NON mice were fed a control with or without the presence of the β-3 adrenergic agonist CL316,243 for four weeks (at 0.001% CL316,243 by weight in the dietary chow).
In both studies, five treated and five control mice were used. Following the treatments and the killing of the mice, tissues and plasma were taken, chilled to −80 ° C. and shipped to the analysis laboratory at Lipomics Technologies in a frozen state.
Tissue processing and lipid extraction, including provision of internal standards, was carried out essentially as described in Watkins et al. (J. Lipid Res. Papers in Press, 10.1184/jlf.M200169-JLF200, published August 16, 2002), and in co-owned international application PCT/US02/21426, entitled “GENERATING, VIEWING, INTERPRETING, AND UTILIZING A QUANTITATIVE DATABASE OF METABOLITES,” both of which are incorporated in their entirety herein by reference.
The separation of lipid classes was performed in some instance by preparative thin-layer chromatography (TLC). To remove any residual metal or other damaging contaminants on the TLC plates, each plate was washed prior to use. Washing the plates is a three-step process that involves impregnating each plate with ethylenediamine tetraacetic acid (EDTA) and rinsing the plates once with methanol and once with chloroform. Each plate is first impregnated with 1 mM EDTA, pH 5.5, by ascending development using the method of Ruiz (J. Lipid Res. 38, 1482-1489, 1997). After each plate was completely developed, it was dried in air overnight. Once dry, each plate was developed in methanol, dried, and developed in chloroform in the same direction as the development with EDTA. The washed plates were then dried in air. Just prior to use, each plate was activated by heating to 110° C. for 10 minutes.
To prepare the TLC chamber for chromatography, Whatman (Clifton, N.J.) filter paper was cut into 20×80-cm strips and wrapped around the inside wall of a 30×60×10-cm glass development chamber. One hundred milliliters of the appropriate mobile phase was added to the chamber, and the chambers were sealed and allowed to equilibrate. Chambers were considered equilibrated when the solvent front had completely ascended the filter paper. The mobile phase employed for the separation of phospholipid classes (lyso-phospholipids, sphingomyelin, phosphatidylcholine, phosphatidylserine, phosphatidylethanolamine and cardiolipin) was a modification of the solvent system described by Holub and Skeaf (“Nutritional regulation of cellular phosphatidylinositol,” in Methods in Enzymology, ed. Conn, P. M. (Academic Press, Inc., Orlando), pp. 234-243, 1987) consisting of chloroform/methanol/acetic acid/water (100:67:7:4, by volume).
For the separation of neutral lipid classes (free fatty acids, free sterols, triacylglycerides and cholesterol esters), a solvent system consisting of petroleum ether/diethyl ether/acetic acid (80:20:1, by volume) was used (Mangold, Thin Layer Chromatography—A Laboratory Handbook (Springer-Verlag, New York), 1969).
After the TLC plate was activated, the sample extracts were spotted onto the activated plate. As a general rule, samples were spotted at an estimated concentration such that no single lipid class was present at more than 25 jig per centimeter of plate width following chromatography. This ensured that the plate was not overloaded and minimized the risk of cross-contamination between lipid classes (cross-contamination is readily identified during sample analysis as each lipid class contains unique internal standards). […]

## C[C@H](Cc1ccc2c(c1)OC(C(=O)[O-])(C(=O)[O-])O2)NC[C@H](O)c1cccc(Cl)c1.[Na+].[Na+] [CL316,243]
Liver, lipid class PS/I
  Total n9: 5.4 percentage of total fatty acids
Liver, lipid class TAG
  14:0: 1.1 percentage of total fatty acids
  16:0: 32.1 percentage of total fatty acids
  16:1n7: 3.2 percentage of total fatty acids
  18:0: 3.3 percentage of total fatty acids
  18:1n7: 2.9 percentage of total fatty acids
  18:1n9: 34.1 percentage of total fatty acids
Plasma, CE
  14:0: 21.2 nanomoles per gram
  16:0: 114.4 nanomoles per gram
  16:1n7: 84.9 nanomoles per gram
  18:0: 16.5 nanomoles per gram
  18:1n7: 13.5 nanomoles per gram
  18:1n9: 194.2 nanomoles per gram
  Saturates: 162.9 nanomoles per gram
  Total n7: 98.4 nanomoles per gram
  Total n9: 198.7 nanomoles per gram
  Total nMole of FA: 2584.1 nanomoles per gram
Plasma, FFA
  14:0: 22.1 nanomoles per gram
  16:0: 102.3 nanomoles per gram
  16:1n7: 15.4 nanomoles per gram
  18:0: 36.9 nanomoles per gram
  18:1n7: 9.8 nanomoles per gram
  18:1n9: 160.6 nanomoles per gram
  Saturates: 167.7 nanomoles per gram
  Total n7: 25.2 nanomoles per gram
  Total n9: 163.1 nanomoles per gram
  Total nMole of FA: 424.7 nanomoles per gram
Plasma, LysoPC
  14:0: 2.9 nanomoles per gram
  16:0: 241.6 nanomoles per gram
  16:1n7: 4.8 nanomoles per gram
  18:0: 127.4 nanomoles per gram
  18:1n7: 6.9 nanomoles per gram
  18:1n9: 47.5 nanomoles per gram
  Saturates: 381.9 nanomoles per gram
  Total n7: 11.8 nanomoles per gram
  Total n9: 49.4 nanomoles per gram
  Total nMole of FA: 643.1 nanomoles per gram
Plasma, PC
  14:0: 5.5 nanomoles per gram
  16:0: 1121.4 nanomoles per gram
  16:1n7: 15.3 nanomoles per gram
  18:0: 670.9 nanomoles per gram
  18:1n7: 58.8 nanomoles per gram
  18:1n9: 309.6 nanomoles per gram
  Saturates: 1820.6 nanomoles per gram
  Total n7: 74.0 nanomoles per gram
  Total n9: 320.0 nanomoles per gram
  Total nMole of FA: 1928.9 nanomoles per gram
Plasma, PE
  14:0: 4.1 nanomoles per gram
  16:0: 33.9 nanomoles per gram
  16:1n7: 3.3 nanomoles per gram
  18:0: 28.2 nanomoles per gram
  18:1n7: 2.5 nanomoles per gram
  18:1n9: 31.5 nanomoles per gram
  Saturates: 74.0 nanomoles per gram
  Total n7: 5.8 nanomoles per gram
  Total n9: 33.4 nanomoles per gram
  Total nMole of FA: 106.7 nanomoles per gram
Plasma, PL
  14:0: 7.6 nanomoles per gram
  16:0: 1315.0 nanomoles per gram
  16:1n7: 20.3 nanomoles per gram
  18:0: 847.2 nanomoles per gram
  18:1n7: 69.7 nanomoles per gram
  18:1n9: 380.8 nanomoles per gram
  Saturates: 2221.2 nanomoles per gram
  Total n7: 90.0 nanomoles per gram
  Total n9: 429.4 nanomoles per gram
  Total nMole of FA: 2464.5 nanomoles per gram
Plasma, TAG
  14:0: 17.6 nanomoles per gram
  16:0: 219.3 nanomoles per gram
  16:1n7: 33.1 nanomoles per gram
  18:0: 45.7 nanomoles per gram
  18:1n7: 23.7 nanomoles per gram
  18:1n9: 268.3 nanomoles per gram
  Saturates: 295.4 nanomoles per gram
  Total n7: 56.8 nanomoles per gram
  Total n9: 276.2 nanomoles per gram
  Total nMole of FA: 344.8 nanomoles per gram
Plasma, lipid class CE
  14:0: 0.8 percentage of total fatty acids
  16:0: 4.5 percentage of total fatty acids
  16:1n7: 3.2 percentage of total fatty acids
  18:0: 0.7 percentage of total fatty acids
  18:1n7: 0.5 percentage of total fatty acids
  18:1n9: 7.5 percentage of total fatty acids
Plasma, lipid class FFA
  14:0: 5.7 percentage of total fatty acids
  16:0: 28.1 percentage of total fatty acids
  16:1n7: 3.2 percentage of total fatty acids
  18:0: 10.0 percentage of total fatty acids
  18:1n7: 2.1 percentage of total fatty acids
  18:1n9: 31.0 percentage of total fatty acids
Plasma, lipid class LY
  14:0: 0.5 percentage of total fatty acids
  16:0: 37.8 percentage of total fatty acids
  16:1n7: 0.7 percentage of total fatty acids
  18:0: 20.1 percentage of total fatty acids
  18:1n7: 1.0 percentage of total fatty acids
  18:1n9: 7.2 percentage of total fatty acids
Plasma, lipid class PC
  14:0: 0.1 percentage of total fatty acids
  16:0: 29.0 percentage of total fatty acids
  16:1n7: 0.4 percentage of total fatty acids
  18:0: 17.5 percentage of total fatty acids
  18:1n7: 1.5 percentage of total fatty acids
  18:1n9: 7.9 percentage of total fatty acids
Plasma, lipid class PE
  14:0: 1.9 percentage of total fatty acids
  16:0: 16.1 percentage of total fatty acids
  16:1n7: 1.4 percentage of total fatty acids
  18:0: 13.5 percentage of total fatty acids
  18:1n7: 1.1 percentage of total fatty acids
  18:1n9: 13.1 percentage of total fatty acids
Plasma, lipid class PL
  14:0: 0.2 percentage of total fatty acids
  16:0: 26.6 percentage of total fatty acids
  16:1n7: 0.4 percentage of total fatty acids
  18:0: 17.3 percentage of total fatty acids
  18:1n7: 1.4 percentage of total fatty acids
  18:1n9: 7.7 percentage of total fatty acids
Plasma, lipid class TAG
  14:0: 1.7 percentage of total fatty acids
  16:0: 21.1 percentage of total fatty acids
  16:1n7: 3.2 percentage of total fatty acids
  18:0: 4.4 percentage of total fatty acids
  18:1n7: 2.3 percentage of total fatty acids
  18:1n9: 25.8 percentage of total fatty acids
Male inbred NON mice, 0.001% CL316,243 in chow 4 weeks, vs controls (Tables 7 and 8)
  palmitoleic acid concentrations in most lipid classes in heart, liver, adipose and plasma: substantial decrease
